Test results: patent US20250339531A1, “DUX4 POLYPEPTIDES AND NUCLEIC ACIDS FOR TREATING INFLAMMATORY AND AUTOIMMUNE CONDITIONS” (Fred Hutchinson Cancer Center, priority 2021, published 2025)
“Also recorded” adds a separate entry of the source.

How the values were obtained:
[1] = test system: IFIH1, DDX58, cGAS and Type-1 IFN pathways; test: ISG induction by IFNβ, poly(I:C), RIG-I ligand or cGAMP, RT-qPCR in MB135-iDUX4 cells; format: cell-based, human; conditions: MB135iDUX4 cells ± doxycycline
Method: All myoblast experiments were conducted in immortalized MB135 or MB200 myoblast cell lines (isolated from a control or FSHD2 subject, respectively cultured in Ham's F-10 Nutrient Mix (Gibco) supplemented with 15% fetal bovine serum (Hyclone), 100 U/100 μg/ml penicillin/streptomycin (Gibco), 1 μM dexamethasone (Sigma), and 10 ng/ml recombinant human basic fibroblast growth factor (PeproTech). To differentiate the myoblasts to myotubes, media was changed to DMEM supplemented with 10 μg/ml insulin (Sigma) and 10 μg/ml transferrin (Sigma). Cell lines containing doxycycline-inducible transgenes were additionally cultured with 2 μg/mL puromycin (Sigma). Transgenes were induced with 1 μg/mL of doxycycline (Sigma) for 4 hours prior to other treatments for a total of 20 hrs. The Kitra-SRS cells (RRID:CVCL_YI69) were provided by Dr. H. Otani and Osaka University (Nakai et al., 2019) and were cultured in DMEM supplemented with 10% fetal bovine serum (Hyclone) and 100 U/100 μg/ml penicillin/streptomycin (Gibco). Biological replicates consisted of independent but parallel experiments, such as simultaneously stimulating three cell culture plates with IFNγ. Technical replicates consisted of repeat measurements of the same biological sample, such as loading the same biological sample in triplicate for analysis by RT-qPCR. […]

[2] = test system: HLA-A, HLA-B, HLA-C, PSMB8, PSMB9, PSMB10 mRNA; test: mRNA levels of MHC-I and immunoproteasome genes (RT-PCR, RNA-seq); format: cell-based, human; conditions: MB135iDUX4 cells
Method: Myoblasts were transfected with either (final concentrations) 10 μM 2′,3′-cGAMP (Sigma Aldrich), 2 μg/mL poly(I:C) (Invitrogen), or 1 μg/mL 3′ppp-dsRNA RIG-I ligand (Dan Stetson Lab, UW) using Lipofectamine 2000 according to manufacturer's protocol, or were stimulated with 1000U IFNβ (PeproTech) or 200 ng/ml IFNγ (R+D Systems) by addition directly to cell culture medium. After 16 hours of immune stimulation, RNA was collected from cells using the NucleoSpin RNA Kit (Macherey-Nagel) according to manufacturer's instructions. RNA samples were quantified by nanodrop and 1 μg of RNA per sample was treated with DNase I Amplification Grade (Thermo Fisher), and then synthesized into cDNA using the Superscript IV First-Strand Synthesis System, including oligo dT primers (Invitrogen). qPCR was run in 384-well plates on an Applied Biosystems QuantStudio 6 Flex Real-Time PCR System (ABI) and analyzed in Microsoft Excel.
Total RNA was isolated using the NucleoSpin RNA kit (Machery-Nagel) or Direct-zol RNA Mini-Prep Kit (Zymo Research) according to manufacturer's instructions. RNA-seq libraries were prepared using the Illumina TruSeq RNA Sample Prep v2 Kit and sequenced using 50 bp paired-end sequencing on the Illumina NextSeq platform by the Fred Hutchinson Cancer Center Genomics Core.

[3] = test system: proteins that co-immunoprecipitated with DUX4-CTD constructs expressed in MB135 myoblasts; test: LC-MS of proteins co-immunoprecipitated with DUX4-CTD (Table 1) and western validation; format: binding, human; conditions: LC-MS of co-IP; western validation with MB135-iDUXB as control; listed as DUX4-CTD
From the text: As an unbiased method to identify proteins that interact with the C-terminal region of DUX4, liquid chromatography mass spectroscopy (LC-MS) was used to identify proteins that co-immunoprecipitated with DUX4-CTD constructs expressed in MB135 myoblasts. In the first experiment, MB135iDUX4-CTD cells were used, either untreated, treated with doxycycline alone, or with both doxycycline and IFNG. In the second experiment, MB135iDUX4-CTD and MB135iDUX4mL1dL2 cells were used, both treated with doxycycline and IFNG, compared to these two cell lines untreated and combined as a control. Proteins with a minimum of 2 peptide spectrum matches (PSMs) in at least one sample that were identified in both experiments were assigned to one of ten categories (see Methods) to separate candidate interactors from other categories that might be co-purified because of obligate interactions (e.g., proteasome or ribosome) or might be less likely to be physiologically relevant (e.g., cytoskeletal proteins). Candidate interactors were then ranked based on the total PSMs for that protein across all samples.
Centrifugation at 2500 rcf at 4° C. for 5 min pelleted the nuclei, supernatant was discarded, and nuclei resuspended in 1 mL IP buffer pH 7.4 (25 mM Tris-HCl pH 7.5, 175 mM NaCl, 1 mM EDTA, 0.2% NP-40, 5% glycerol) and incubated for 1 hour at 4° C. with rotation then spun at 21000 rcf for 10 minutes at 4° C. to pellet insoluble debris. Protein concentration was determined using the Pierce BCA Protein Assay Kit (ThermoFisher, 23225). An equivalent amount of protein per sample was pre-cleared with Dynabeads Protein G (Invitrogen) bound to mouse IgG (Abcam #131368) for 1 hour at 4° C. with rotation. FLAG-tagged constructs were then immunoprecipitated with Dynabeads Protein G beads coupled to mouse anti-FLAG M2 mAb (Sigma F3165) for 3 hours at 4° C. with rotation. Beads were washed 3× with 1 mL IP buffer and eluted by adding 2× NuPage LDS Sample Buffer (Thermo Fisher, diluted from 4× with PBS) to the beads and heating for 10 minutes at 70° C.
For LC-MS, anti-FLAG immunoprecipitation was performed with beads cross-linked to the anti-FLAG antibody and the proteins competitively eluted with FLAG peptide. Eluted protein samples were electrophoresed into a NuPage 4-12% Bis-Tris gel, excised, and processed by the Fred Hutchinson Cancer Research Center Proteomics Core. Samples were reduced, alkylated, digested with trypsin, desalted, and run on the Orbitrap Eclipse Tribid Mass Spectrometer (Thermo Fisher). Proteomics data were analyzed using Proteome Discoverer 2.4 against a Uniprot human database that included common contaminants using Sequest HT and Percolator for scoring. […] Proteins that were identified in at least one sample from both independent experiments with at least 2 PSMs in one sample were assigned to one of ten categories: 1, candidates; 2, cytoskeletal associated; 3, cytoskeletal; 4, ribosome/translation associated; 5, proteasome associated; 6, membrane or extracellular; ER, golgi, or vesicle associated; 8, lipid metabolism; 9, chaperones; 10, nuclear import or nuclear membrane associated. The proteins in category 1 were further investigated for interactions with DUX4.

Substance	suppression of ISG induction by innate immune stimuli (poly(I:C), short dsRNA/RIG-I ligand, cGAMP, IFNβ) [1]	effect on IFNG-induced mRNAs of MHC class I / immunoproteasome genes, continuous protocol [2]	effect on IFNG-induced mRNAs of MHC class I / immunoproteasome genes, pulsed protocol [2]	candidate interacting proteins [3]
DUX4: human DUX4 protein SEQ ID NO:3 expressed from doxycycline inducible codon altered transgene SEQ ID NO:2	blunted the induction of these genes by each of the stimulated pathways; also recorded: substantially blunted the ISG induction to all treatments; also recorded: pathways that rely on IRFs and STATs are both blocked; also recorded: suppressed the induction of a subset of the panel of ISG genes induced by each ligand; also recorded: CXCL9 was induced by IFNβ, poly(I:C), and the RIG-I ligand but not suppressed by DUX4	profound inhibition of the IFNG-induction of the mRNA for MHC class I genes; also recorded: partially suppresses the IFNG induction of the mRNAs for PSMB8, 9, and 10; also recorded: partly blocked IFNG stimulation of HLA-A, HLA-B, HLA-C, PSMB8, PMSB9, and PSMB10 mRNA levels	little suppression of their mRNAs; also recorded: nearly full induction of these mRNAs; also recorded: still exhibited IFNG-induced mRNA levels significantly above untreated samples	
longCTD: 3×FLAG tag and nls in frame with carboxyterminal 271 amino acids of DUX4 (aa154-424), SEQ ID NOS: 8-9				STAT1 and DDX3X, two key regulators of innate immune signaling, ranked at the top of the list; also recorded: validated the DUX4-CTD interactions with DDX3X, STAT1, PRKDC, YBX1, HNRNPM, PABPC1, NCL, CDK4, and HNRPU
